According to ChEMBL document CHEMBL1201862, “PubChem BioAssay data set” (2004):
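Protocol summary: plate cells (96-well), add compound at 5 concentrations, incubate 48 h, interpolate endpoints linearly. GI50: concentration for 50% inhibition of growth.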 Calls of active or inactive are those of the source. Cut-off read from the data, not from the text of the source: active = GI50 up to about 1.1 µM and inactive = higher.

Experiments:
Test in all cases: NCI-60 cell line screen, 48 h
SF-539 = test system: SF-539
EKVX = test system: EKVX
786-0 = test system: 786-0
MDA-N = test system: MDA-N
SR = test system: SR
HCT-15 = test system: HCT-15
K562 = test system: K562
A498 = test system: A498
UACC-62 = test system: UACC-62
KM12 = test system: KM12
OVCAR-8 = test system: OVCAR-8
SK-MEL-28 = test system: SK-MEL-28
SK-OV-3 = test system: SK-OV-3
M14 = test system: M14
SNB-75 = test system: SNB-75
U-251 = test system: U-251
SK-MEL-2 = test system: SK-MEL-2
HOP-92 = test system: HOP-92
CCRF-CEM = test system: CCRF-CEM
MDA-MB-231 = test system: MDA-MB-231

Row | SMILES | GI50 (SF-539) | GI50 (EKVX) | GI50 (786-0) | GI50 (MDA-N) | GI50 (SR) | GI50 (HCT-15) [µM] | GI50 (K562) | GI50 (A498) | GI50 (UACC-62) | GI50 (KM12) | GI50 (OVCAR-8) | GI50 (SK-MEL-28) | GI50 (SK-OV-3) | GI50 (M14) | GI50 (SNB-75) | GI50 (U-251) | GI50 (SK-MEL-2) | GI50 (HOP-92) | GI50 (CCRF-CEM) | GI50 (MDA-MB-231)
1 | CC1OC(OC2C(O)C(O)C(O)C(O)C2O)C(N)CC1NC(=N)C(=O)O (stereo not given) | > 100 µM (inactive) | > 100 µM (inactive) | > 100 µM (inactive) | > 100 µM (inactive) | > 100 µM (inactive) | > 100 | > 100 µM (inactive) | > 100 µM (inactive) | > 100 µM (inactive) | > 100 µM (inactive) | > 100 µM (inactive) | > 100 µM (inactive) | > 100 µM (inactive) | > 100 µM (inactive) | > 100 µM (inactive) | > 100 µM (inactive) | > 100 µM (inactive) | > 100 µM (inactive) | > 100 µM (inactive) | > 100 µM (inactive)
2 | O=[N+]([O-])c1ccc(C2ON=C(c3ccccc3)N2C23CC4CC(CC(C4)C2)C3)cc1 (stereo not given) | 2.89 µM (inactive) | > 10 µM (inactive) | > 10 µM (inactive) | > 10 µM (inactive) | > 10 µM (inactive) | > 10 | > 10 µM (inactive) | > 10 µM (inactive) | > 10 µM (inactive) | > 10 µM (inactive) | > 10 µM (inactive) | > 10 µM (inactive) | > 10 µM (inactive) | > 10 µM (inactive) | 5.6 µM (inactive) | 6.35 µM (inactive) | > 10 µM (inactive) | > 10 µM (inactive) | > 10 µM (inactive) | > 10 µM (inactive)
3 | Cc1cc(C)c(S(=O)(=O)N(CCCN)OCCCON(CCCN)S(=O)(=O)c2c(C)cc(C)cc2C)c(C)c1 | 2.17 µM (inactive) | 5.92 µM (inactive) | 2.33 µM (inactive) | 1.78 µM (inactive) | 2.07 µM (inactive) | 18.2 | 2.69 µM (inactive) | 3.38 µM (inactive) | 2.52 µM (inactive) | 1.9 µM (inactive) | 3.68 µM (inactive) | 1.91 µM (inactive) | 1.82 µM (inactive) | 1.75 µM (inactive) | 1.86 µM (inactive) | 1.64 µM (inactive) | 1.79 µM (inactive) | 1.98 µM (inactive) | 2.3 µM (inactive) | 1.77 µM (inactive)
4 | C#C[C@]1(O)CC[C@H]2[C@@H]3CCc4cc(OC(=O)c5cccc6cc7ccccc7nc56)ccc4[C@H]3CC[C@@]21C | 31.6 µM (inactive) | 12.9 µM (inactive) | 27.5 µM (inactive) | 25.5 µM (inactive) | 5.52 µM (inactive) | 26.1 | > 100 µM (inactive) | > 100 µM (inactive) | 28.5 µM (inactive) | 20 µM (inactive) | 40.8 µM (inactive) | 35.9 µM (inactive) | 62.1 µM (inactive) | 31 µM (inactive) | 31.2 µM (inactive) | 24 µM (inactive) | 29.2 µM (inactive) | 66.5 µM (inactive) | 12.8 µM (inactive) | 25.6 µM (inactive)
5 | COc1cccc2c1-c1nc(N)c3c(OC)cccc3c1C2=O | > 100 µM (inactive) | 54.1 µM (inactive) | 35.9 µM (inactive) | > 100 µM (inactive) | > 100 µM (inactive) | 28.9 | 64.7 µM (inactive) | > 100 µM (inactive) | > 100 µM (inactive) | 16.1 µM (inactive) | 85.5 µM (inactive) | > 100 µM (inactive) | > 100 µM (inactive) | > 100 µM (inactive) | 22.3 µM (inactive) | > 100 µM (inactive) | > 100 µM (inactive) | > 100 µM (inactive) | > 100 µM (inactive) | 19.1 µM (inactive)
6 | COC(=O)c1cc(=O)n(-c2ccc3nn(C)nc3c2)cc1C(=O)OC | > 100 µM (inactive) | > 100 µM (inactive) | > 100 µM (inactive) | > 100 µM (inactive) | > 100 µM (inactive) | > 100 | > 100 µM (inactive) | > 100 µM (inactive) | > 100 µM (inactive) | > 100 µM (inactive) | > 100 µM (inactive) | > 100 µM (inactive) | > 100 µM (inactive) | > 100 µM (inactive) | > 100 µM (inactive) | > 100 µM (inactive) | > 100 µM (inactive) | > 100 µM (inactive) | > 100 µM (inactive) | > 100 µM (inactive)
7 | CCCCCCCCCCc1c2nc(c(CCCCCCCCCC)c3ccc([nH]3)c(CCCCCCCCCC)c3nc(c(CCCCCCCCCC)c4ccc1[nH]4)C=C3)C=C2 | > 100 µM (inactive) | > 100 µM (inactive) | > 100 µM (inactive) | > 100 µM (inactive) | > 100 µM (inactive) | > 100 | > 100 µM (inactive) | > 100 µM (inactive) | > 100 µM (inactive) | > 100 µM (inactive) | > 100 µM (inactive) | > 100 µM (inactive) | > 100 µM (inactive) | > 100 µM (inactive) | > 100 µM (inactive) | > 100 µM (inactive) | > 100 µM (inactive) | > 100 µM (inactive) | > 100 µM (inactive) | > 100 µM (inactive)
8 | N=C(N)/N=C(\N)Nc1ccc(C(=O)O)cc1 | > 100 µM (inactive) | > 100 µM (inactive) | > 100 µM (inactive) | > 100 µM (inactive) | > 100 µM (inactive) | > 100 | > 100 µM (inactive) | > 100 µM (inactive) | > 100 µM (inactive) | > 100 µM (inactive) | > 100 µM (inactive) | > 100 µM (inactive) | > 100 µM (inactive) | > 100 µM (inactive) | > 100 µM (inactive) | > 100 µM (inactive) | > 100 µM (inactive) | > 100 µM (inactive) | > 100 µM (inactive) | > 100 µM (inactive)
9 | CCCc1cc(=O)oc2c(C=O)c(O)cc(O)c12 | 26.7 µM (inactive) | 21.3 µM (inactive) | 30.1 µM (inactive) | 22.3 µM (inactive) | 27.8 µM (inactive) | 26.4 | 57.4 µM (inactive) | 19.5 µM (inactive) | 19.8 µM (inactive) | 22.7 µM (inactive) | 22 µM (inactive) | 23.2 µM (inactive) | 27.8 µM (inactive) | 22.8 µM (inactive) | 11.3 µM (inactive) | 22.5 µM (inactive) | 18.2 µM (inactive) | 18.7 µM (inactive) | 22.8 µM (inactive) | 17.5 µM (inactive)
10 | O=C1CSC(c2ccccc2)N1c1ccc(-n2c(-c3ccccc3)nc3ccccc3c2=O)cc1 (stereo not given) | 65.2 µM (inactive) | > 75.7 µM (inactive) | > 92.9 µM (inactive) | > 79.1 µM (inactive) | 26.9 µM (inactive) | 46.9 | 33.1 µM (inactive) | > 100 µM (inactive) | 33.3 µM (inactive) | 41.1 µM (inactive) | 61.7 µM (inactive) | > 80.4 µM (inactive) | > 100 µM (inactive) | > 100 µM (inactive) | > 100 µM (inactive) | 59.8 µM (inactive) | > 100 µM (inactive) | > 61.1 µM (inactive) | 36.3 µM (inactive) | 47.2 µM (inactive)
